In patent US20030153056A1, “Glycosyltransferase proteins” (priority 2000, published 2003):

Columns and labels:
[1] = biological target: T1, Brainiac β1-3-N-acetylglucosaminyltransferase (Drosophila melanogaster, UniProt Q24157); experiment: Substrate specificities of Brainiac β1-3-N-acetylglucosaminyltransferase (acceptor panel, microsomal preparations); type: biochemical; conditions: panel of mono- and disaccharides with aglycons and oligosaccharides
T1 construct: The full coding region of Brainiac was prepared by PCR using genomic DNA; made in house; host or cells: High Five insect cells (baculovirus vector pVL1393); microsomal fractions
T1 sequence (Q24157 1-325): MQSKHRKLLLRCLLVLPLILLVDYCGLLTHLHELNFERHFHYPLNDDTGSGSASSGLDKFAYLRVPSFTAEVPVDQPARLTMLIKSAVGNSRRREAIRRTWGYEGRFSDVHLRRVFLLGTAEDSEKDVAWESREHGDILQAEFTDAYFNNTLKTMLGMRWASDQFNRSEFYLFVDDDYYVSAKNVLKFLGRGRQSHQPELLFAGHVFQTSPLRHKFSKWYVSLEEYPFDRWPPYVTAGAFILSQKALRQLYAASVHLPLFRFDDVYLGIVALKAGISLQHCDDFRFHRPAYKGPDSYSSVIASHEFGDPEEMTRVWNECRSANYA
Description: Fringe-Myc and Fringe-NNN-myc were cloned into baculovirus vector pVL1393 (Pharmingen) and expressed in High Five™ cells. Microsomal fractions were prepared by hypotonic lysis ultracentrifugation and solubilised 1:2 (vol/vol) in 20 mM Cacodylate pH 6.5, 1% Triton-CF54, 5 MM MnCl2 containing Leupeptin and Aprotinin as described previously (Amado et al., 1998). For glycosyltransferase assays, 5 μl of this suspension were added to a total of 50 μl reaction mixture containing 25 mM Cacodylate pH 6.5, 0.25% Triton-CF54, 5 mM MnCl2, 500 mM free sugar, 100 μM UDP-^14C-sugar (1280-2000 cpm/nmol). Reactions were incubated at 37° C. for 45-60 minutes, followed by Dowex-1 anion exchange chromatography and scintillation counting of 50% of the flow-through.
Brainiac-full was cloned into baculovirus vector pVL1393 (Pharmingen) and expressed in High Five cells. […] Initial analysis of activity was done with five monosaccharides and four donor sugar nucleotides as described in FIG. 5 for Fringe. Assays with the acceptors listed in Table 1 were performed as described for Fringe except no additional detergent was added. Reactions with glycolipid substrates were performed in the presence of 0.5% N-octylglucoside in 50 ul reaction volume containing 10 μg glycolipid.
In the latter case the acceptor sugar was not determined.

[2] = biological target: T1, Brainiac β1-3-N-acetylglucosaminyltransferase; experiment: as above; type: biochemical; conditions: microsomes of pVL-Brainiac infected High Five cells, background of irrelevant construct subtracted, donor UDP-GlcNAc

Compound: OC[C@H]1OC(O)[C@H](O)[C@@H](O)[C@H]1O (stereo partly drawn) [D-Gal]
- Acceptor for Brainiac, in words (detailed analysis) [1]: not found to be acceptors
- Brainiac activity with substrate ([2]; substrate 2 mM): 0.00 nmol/h/mg
- Brainiac activity with substrate ([2]; substrate 20 mM): 0.00 nmol/h/mg
